From US8173618B2, “Formulations for reducing neuronal degeneration” (University of Massachusetts, priority 2003, dated 2012) come the findings set out here.

Common to all, as to format: cell-based, human
The test system of test [1] is differentiated SH-SY-5Y cells. The test can be described thus: Intracellular ROS by DCFD fluorescence in differentiated SH-SY-5Y cells. How it is done: Cultured cells were used to test individual agents and formulations. In general, SH-SY-5Y human neuroblastoma cells were cultured in DMEM (Cellgro) containing 10% fetal bovine serum in 5% CO2.
For treatments with Abeta, differentiated cultures were transferred to medium without serum and treated for two hours with 20 μM Abeta25-35 (Sigma Chemical Co., St. Louis, Mo.). […] Louis, Mo.). In experiments calling for treatment of cell cultures with N-acetyl cysteine (NAC; NALC), cultures were treated with 10 mM NAC (Sigma Chemical Co., St. Louis, Mo.) after the culture was grown for two hours in serum-free medium.
Intracellular reactive oxygen species (ROS) were monitored as described in Ekinci et al., 1999 (J. Biol. Chem., 274:30322-30327). Briefly, cells were incubated for 30 minutes with dichloro-fluorescein diacetate (DCFD; acetoxymethyl ester; Molecular Probes, Inc., Eugene, Oreg.), which is used to detect intracellular peroxide levels. Incubation was followed by rinsing of cultures in serum-free medium and immediate capture of images using UV optics. Images were captured under epifluorescent and phase-contrast illumination using a DAGE CCL-72 cooled CCD camera via a Scion LG-3 frame grabber operated by NIH Image (see the Internet at rsb.info.nih.gov/nih-image). Images were then stored as PICT files on a Macintosh Power PC 7100AV for subsequent analysis. At least 100 cells in randomly-selected fields from duplicate cultures derived from multiple experiments were scored for fluorescent intensity using NIH Image analysis software. Representative background areas devoid of cells were similarly analyzed and subtracted from cell values to yield net densitometric values. All fields for each individual assay were illuminated, captured, and processed under identical settings. Corresponding phase-contrast images were obtained. Cell aggregates were excluded from the assays; only individual cells were quantified. Values were exported to Excel for statistical analyses using Student's t test.
For monitoring of intracellular peroxide concentrations as an index of ROS, cultures received 10 μl/ml DFCD (2′7′-dichlorofluorescein diacetate; Kodak) for 20 minutes. Cultures were then visualized under fluorescein UV optics (perikaryon; Ekinci and Shea, 1999, supra).

Test [2] deals with differentiated SH-SY-5Y cells. The test can be described thus: Externalized phosphatidylserine (meracyanine fluorescence) as index of apoptosis in SH-SY-5Y cells. To be noted: co-treatment with 50 μM ALCAR, 20 μM Abeta. As to the method:
Levels of externalized phosphatidylserine (PS) were used as a measure of apoptosis (Rimon et al., 1997, J. Neurosci. Res., 48:563-570). Briefly, cultures were subjected to treatments then rinsed with PBS and incubated with 10 μl/ml merocyanine (Upstate Biotech, Lake Placid, N.Y.), followed by examination under rhodamine optics (Ekinci et al, 1999, J. Biol. Chem., 274:30322-30327).
The question of whether folate deficiency is associated with apoptosis was investigated. […] Overall detachment, a further sign of cell death, was evident by the seventh day in the serum-deprived cultures. The detachment phenomenon precluded longer experiments.
(§1) The effect of ALCAR on differentiated SH-SY-5Y cells treated with Abeta was examined. Cells were cultured in 20 μM Abeta in the presence and absence of ALCAR. Some cultures were pretreated with 50 μM ALCAR for 30 minutes. In these experiments, the ALCAR-containing medium was replaced with medium containing Abeta and no ALCAR then incubated for two hours before being assayed. Cultures were assayed for ROS, apoptosis, and ATP.

In test [3] the test system is differentiated SH-SY-5Y cells. The test can be described thus: ATP levels in Abeta-treated SH-SY-5Y cells. The following applies: co-treatment and prior treatment with 50 μM ALCAR. As to the method: FIG. 11 is a bar graph showing the results of experiments examining apoptosis in which differentiated SH-SY-5Y cells cultured in the presence or absence of Abeta, with or without ALCAR for two hours, and assayed for ATP using spectrophotometric methods known in the art.
as §1

Each structure is given as a SMILES string.

On to `CC(=O)O[C@H](CC(=O)[O-])C[N+](C)(C)C` [ALCAR, acetyl-L-carnitine], for which the “effect of Abeta on ROS generation” value in test [1] (co-treatment with 50 μM ALCAR, 20 μM Abeta) is recorded as “reduced the effect of Abeta on ROS generation”. The “Abeta neurotoxicity (ROS, apoptosis)” value in test [1] (pretreatment with 50 μM ALCAR for 30 minutes, followed by its removal) is given as “effective at preventing Abeta neurotoxicity”. Further, the ROS entry in test [1] (single agent, control cells and cells exposed to Abeta, two hours) is “reduced ROS”. The “effect of Abeta on apoptosis” value in test [2] is recorded as “reduced”. Besides, the “Abeta-induced reduction in ATP levels” value in test [3] was “prevented this reduction in ATP levels”.
